In patent US5210193A, “Piperazine derivatives” (American Cyanamid Company, priority 1990, dated 1993):
Values after ≈ are worked out from the molar mass of the structure shown.

Experiments:
Assay in all cases: in vitro antibacterial MIC, agar plate dilution
Type in all cases: cell-based
[1] = test system: Staphylococcus aureus CMC 83-127; conditions: Staphylococcus aureus, CMC83127, 18 h, 35° C., read-out: MIC
Outline: (§1)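 Read-out is visible growth inhibition on Mueller-Hinton agar dilution plates incubated 18 hours at 35° C after inoculation of ~10^4 CFU (Steers device), with MIC reported in mcg/ml.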

[2] = test system: Staphylococcus epidermidis CMC 83-135; conditions: CMC83135, 18 hours, 35° C., read-out: MIC
Outline: as §1

[3] = test system: Staphylococcus aureus VGH 84-46; conditions: Staphylococcus aureus, VGH8446, 18 h, 35° C., read-out: MIC
Outline: as §1

[4] = test system: Enterobacter cloacae K 84-10; conditions: Enterobacter cloacae, K8410, 18 h, 35° C., read-out: MIC
Outline: as §1

[5] = test system: Morganella morganii VGH 84-11; conditions: VGH8411, 18 hours, 35° C., read-out: MIC
Outline: as §1

[6] = test system: Escherichia coli ATCC 25922; conditions: Escherichia coli, ATCC25922, 18 h, 35° C., read-out: MIC
Outline: as §1

[7] = test system: Streptococcus faecalis VGH 84-65; conditions: Enterococcus faecalis, VGH8465, 18 h, 35° C., read-out: MIC
Outline: as §1

[8] = test system: Staphylococcus epidermidis IO 83-58; conditions: IO8358, 18 hours, 35° C., read-out: MIC
Outline: as §1

[9] = test system: Staphylococcus epidermidis VGH 84-40; conditions: VGH8440, 18 hours, 35° C., read-out: MIC
Outline: as §1

[10] = test system: Klebsiella oxytoca MOR 84-28; conditions: MOR8428, 18 hours, 35° C.
Outline: as §1

[11] = test system: Staphylococcus aureus ATTC 29213; conditions: Staphylococcus aureus, ATTC29213, 18 h, 35° C., read-out: MIC
Outline: as §1

[12] = test system: Acinetobacter calcoaceticus MOR 84-43; conditions: MOR8443, 18 hours, 35° C., read-out: MIC
Outline: as §1

[13] = test system: Streptococcus faecalis ATTC 29212; conditions: Enterococcus faecalis, ATTC29212, 18 hours, 35° C., read-out: MIC
Outline: as §1

[14] = test system: Staphylococcus aureus Smith; conditions: Staphylococcus aureus, 18 h, 35° C., read-out: MIC
Outline: as §1

[15] = test system: Serratia marcescens K 84-18; conditions: Serratia marcescens, K8418, 18 h, 35° C., read-out: MIC
Outline: as §1

[16] = test system: Enterobacter cloacae VGH 84-37; conditions: Enterobacter cloacae, VGH8437, 18 h, 35° C., read-out: MIC
Outline: as §1

[17] = test system: Klebsiella pneumoniae MOR 84-4; conditions: Klebsiella pneumoniae, MOR844, 18 h, 35° C., read-out: MIC
Outline: as §1

[18] = test system: Escherichia coli CMC 84-16; conditions: Escherichia coli, CMC8416, 18 h, 35° C., read-out: MIC
Outline: as §1

[19] = test system: Morganella morganii CMC 84-37; conditions: Morganella morganii, CMC8437, 18 h, 35° C., read-out: MIC
Outline: as §1

[20] = test system: Pseudomonas aeruginosa VGH 84-4; conditions: Pseudomonas aeruginosa, VGH844, 18 h, 35° C., read-out: MIC
Outline: as §1

[21] = test system: Staphylococcus aureus VGH 84-45; conditions: Staphylococcus aureus, VGH8445, 18 h, 35° C., read-out: MIC
Outline: as §1

Klebsiella pneumoniae AD = conditions: Klebsiella pneumoniae, 18 h, 35° C., read-out: MIC
Outline: as §1

[22] = test system: Escherichia coli CMC 84-11; conditions: Escherichia coli, CMC8411, 18 h, 35° C., read-out: MIC
Outline: as §1

[23] = test system: Enterobacter aerogenes VGH 84-36; conditions: Klebsiella aerogenes, VGH8436, 18 hours, 35° C., read-out: MIC
Outline: as §1

[24] = test system: Escherichia coli PRNT 311; conditions: PRNT311, 18 hours, 35° C., read-out: MIC
Outline: as §1

[25] = test system: Staphylococcus aureus CMC 83-128; conditions: CMC83128, 18 hours, 35° C., read-out: MIC
Outline: as §1

Escherichia coli NAR 311 = conditions: NAR311, 18 hours, 35° C., read-out: MIC
Outline: as §1

[26] = test system: Serratia marcescens F 0-35; conditions: Serratia marcescens, F035, 18 h, 35° C., read-out: MIC
Outline: as §1

[27] = test system: Pseudomonas aeruginosa LL-1244; conditions: Pseudomonas aeruginosa, LL1244, 18 h, 35° C., read-out: MIC
Outline: as §1

[28] = test system: Proteus rettgeri CMC 84-41; conditions: Providencia rettgeri, CMC8441, 18 h, 35° C., read-out: MIC
Outline: as §1

[29] = test system: Staphylococcus Spp saprophiticus VGH 84-50; conditions: 18 hours, 35° C., read-out: MIC
Outline: as §1

## CCn1cc(C(=O)O)c(=O)c2cc(F)c(N3CCNC(c4ccc(C)s4)C3)cc21 (stereo not drawn) [Example 37, 1-Ethyl-6-fluoro-1,4-dihydro-7-[3-(5-methyl-2-thienyl)-1-piperazinyl]-4-oxo-3-quinolinecarboxylic acid]
[1]
  MIC: 0.12 µg/mL (≈ 0.289 µM)
[2]
  MIC: 0.5 µg/mL (≈ 1.2 µM)
[3]
  MIC: 0.5 µg/mL (≈ 1.2 µM)
[4]
  MIC: 1 µg/mL (≈ 2.41 µM)
[5]
  MIC: 1 µg/mL (≈ 2.41 µM)
[6]
  MIC: 1 µg/mL (≈ 2.41 µM)
[7]
  MIC: 4 µg/mL (≈ 9.63 µM)
[8]
  MIC: 0.5 µg/mL (≈ 1.2 µM)
[9]
  MIC: 0.25 µg/mL (≈ 0.602 µM)
[10]
  MIC: 1 µg/mL (≈ 2.41 µM)
[11]
  MIC: 0.5 µg/mL (≈ 1.2 µM)
[12]
  MIC: 8 µg/mL (≈ 19.3 µM)
[13]
  MIC: 4 µg/mL (≈ 9.63 µM)
[14]
  MIC: 0.5 µg/mL (≈ 1.2 µM)
[15]
  MIC: 2 µg/mL (≈ 4.81 µM)
[16]
  MIC: 1 µg/mL (≈ 2.41 µM)
[17]
  MIC: 2 µg/mL (≈ 4.81 µM)
[18]
  MIC: 0.5 µg/mL (≈ 1.2 µM)
[19]
  MIC: 0.5 µg/mL (≈ 1.2 µM)
[20]
  MIC: 16 µg/mL (≈ 38.5 µM)
[21]
  MIC: 0.12 µg/mL (≈ 0.289 µM)
Klebsiella pneumoniae AD
  MIC: 2 µg/mL (≈ 4.81 µM)
[22]
  MIC: 1 µg/mL (≈ 2.41 µM)
[23]
  MIC: 1 µg/mL (≈ 2.41 µM)
[24]
  MIC: 2 µg/mL (≈ 4.81 µM)
[25]
  MIC: 0.25 µg/mL (≈ 0.602 µM)
Escherichia coli NAR 311
  MIC: 16 µg/mL (≈ 38.5 µM)
[26]
  MIC: 2 µg/mL (≈ 4.81 µM)
[27]
  MIC: 64 µg/mL (≈ 154 µM)
[28]
  MIC: 1 µg/mL (≈ 2.41 µM)
[29]
  MIC: 2 µg/mL (≈ 4.81 µM)

## CN1CCN(c2cc3c(cc2F)c(=O)c(C(=O)O)cn3C2CC2)CC1c1ccsc1 (stereo not drawn) [Example 66, 1-Cyclopropyl-6-fluoro-1,4-dihydro-4-oxo-7-[4-methyl-3-(3-thienyl)-1-piperazinyl]-3-quinolinecarboxylic acid]
[1]
  MIC: 0.03 µg/mL (≈ 0.0702 µM)
[2]
  MIC: 0.06 µg/mL (≈ 0.14 µM)
[3]
  MIC: 0.06 µg/mL (≈ 0.14 µM)
[4]
  MIC: 0.12 µg/mL (≈ 0.281 µM)
[5]
  MIC: 1 µg/mL (≈ 2.34 µM)
[6]
  MIC: 0.12 µg/mL (≈ 0.281 µM)
[7]
  MIC: 0.25 µg/mL (≈ 0.585 µM)
[8]
  MIC: 0.06 µg/mL (≈ 0.14 µM)
[9]
  MIC: 0.06 µg/mL (≈ 0.14 µM)
[10]
  MIC: 0.12 µg/mL (≈ 0.281 µM)
[11]
  MIC: 0.25 µg/mL (≈ 0.585 µM)
[12]
  MIC: 8 µg/mL (≈ 18.7 µM)
[13]
  MIC: 0.5 µg/mL (≈ 1.17 µM)
[14]
  MIC: 0.06 µg/mL (≈ 0.14 µM)
[15]
  MIC: 2 µg/mL (≈ 4.68 µM)
[16]
  MIC: 0.25 µg/mL (≈ 0.585 µM)
[17]
  MIC: 0.5 µg/mL (≈ 1.17 µM)
[18]
  MIC: 0.06 µg/mL (≈ 0.14 µM)
[19]
  MIC: 0.5 µg/mL (≈ 1.17 µM)
[21]
  MIC: 0.03 µg/mL (≈ 0.0702 µM)
Klebsiella pneumoniae AD
  MIC: 0.25 µg/mL (≈ 0.585 µM)
[22]
  MIC: 0.12 µg/mL (≈ 0.281 µM)
[23]
  MIC: 2 µg/mL (≈ 4.68 µM)
[24]
  MIC: 0.5 µg/mL (≈ 1.17 µM)
[25]
  MIC: 0.03 µg/mL (≈ 0.0702 µM)
Escherichia coli NAR 311
  MIC: 0.5 µg/mL (≈ 1.17 µM)
[26]
  MIC: 2 µg/mL (≈ 4.68 µM)
[27]
  MIC: 16 µg/mL (≈ 37.4 µM)
[28]
  MIC: 1 µg/mL (≈ 2.34 µM)
[29]
  MIC: 0.06 µg/mL (≈ 0.14 µM)

## O=C(O)c1cn(-c2ccc(F)cc2)c2cc(N3CCNC(c4ccco4)C3)c(F)cc2c1=O (stereo not drawn) [Example 67, 6-Fluoro-1-(4-fluorophenyl)-7-[3-(2-furanyl)-1-piperazinyl]-1,4-dihydro-4-oxo-3-quinolinecarboxylic acid]
[1]
  MIC: 0.03 µg/mL (≈ 0.0665 µM)
[2]
  MIC: 0.06 µg/mL (≈ 0.133 µM)
[3]
  MIC: 0.03 µg/mL (≈ 0.0665 µM)
[4]
  MIC: 0.25 µg/mL (≈ 0.554 µM)
[5]
  MIC: 1 µg/mL (≈ 2.22 µM)
[6]
  MIC: 0.12 µg/mL (≈ 0.266 µM)
[7]
  MIC: 1 µg/mL (≈ 2.22 µM)
[8]
  MIC: 0.06 µg/mL (≈ 0.133 µM)
[9]
  MIC: 0.06 µg/mL (≈ 0.133 µM)
[10]
  MIC: 0.12 µg/mL (≈ 0.266 µM)
[11]
  MIC: 0.06 µg/mL (≈ 0.133 µM)
[12]
  MIC: 0.12 µg/mL (≈ 0.266 µM)
[13]
  MIC: 0.5 µg/mL (≈ 1.11 µM)
[14]
  MIC: 0.03 µg/mL (≈ 0.0665 µM)
[15]
  MIC: 1 µg/mL (≈ 2.22 µM)
[16]
  MIC: 0.25 µg/mL (≈ 0.554 µM)
[17]
  MIC: 0.5 µg/mL (≈ 1.11 µM)
[18]
  MIC: 0.12 µg/mL (≈ 0.266 µM)
[19]
  MIC: 1 µg/mL (≈ 2.22 µM)
[21]
  MIC: 0.03 µg/mL (≈ 0.0665 µM)
Klebsiella pneumoniae AD
  MIC: 0.25 µg/mL (≈ 0.554 µM)
[22]
  MIC: 0.12 µg/mL (≈ 0.266 µM)
[23]
  MIC: 1 µg/mL (≈ 2.22 µM)
[24]
  MIC: 0.25 µg/mL (≈ 0.554 µM)
[25]
  MIC: 0.06 µg/mL (≈ 0.133 µM)
Escherichia coli NAR 311
  MIC: 2 µg/mL (≈ 4.43 µM)
[26]
  MIC: 2 µg/mL (≈ 4.43 µM)
[27]
  MIC: 4 µg/mL (≈ 8.86 µM)
[28]
  MIC: 1 µg/mL (≈ 2.22 µM)
[29]
  MIC: 0.25 µg/mL (≈ 0.554 µM)

## CCn1cc(C(=O)O)c(=O)c2c(F)c(F)c(N3CCSCC3)c(F)c21 [Example 89, 1-Ethyl-5,6,8-trifluoro-1,4-dihydro-4-oxo-7-(4-thiomorpholinyl)-3-quinolinecarboxylic acid]
[1]
  MIC: 0.5 µg/mL (≈ 1.34 µM)
[2]
  MIC: 0.5 µg/mL (≈ 1.34 µM)
[4]
  MIC: 2 µg/mL (≈ 5.37 µM)
[5]
  MIC: 2 µg/mL (≈ 5.37 µM)
[6]
  MIC: 1 µg/mL (≈ 2.69 µM)
[7]
  MIC: 32 µg/mL (≈ 85.9 µM)
[8]
  MIC: 0.5 µg/mL (≈ 1.34 µM)
[10]
  MIC: 2 µg/mL (≈ 5.37 µM)
[11]
  MIC: 0.5 µg/mL (≈ 1.34 µM)
[12]
  MIC: 2 µg/mL (≈ 5.37 µM)
[13]
  MIC: 8 µg/mL (≈ 21.5 µM)
[14]
  MIC: 0.25 µg/mL (≈ 0.671 µM)
[15]
  MIC: 2 µg/mL (≈ 5.37 µM)
[16]
  MIC: 4 µg/mL (≈ 10.7 µM)
[17]
  MIC: 4 µg/mL (≈ 10.7 µM)
[18]
  MIC: 2 µg/mL (≈ 5.37 µM)
[19]
  MIC: 4 µg/mL (≈ 10.7 µM)
[20]
  MIC: 32 µg/mL (≈ 85.9 µM)
[21]
  MIC: 0.25 µg/mL (≈ 0.671 µM)
Klebsiella pneumoniae AD
  MIC: 2 µg/mL (≈ 5.37 µM)
[22]
  MIC: 1 µg/mL (≈ 2.69 µM)
[23]
  MIC: 8 µg/mL (≈ 21.5 µM)
[24]
  MIC: 2 µg/mL (≈ 5.37 µM)
[25]
  MIC: 1 µg/mL (≈ 2.69 µM)
Escherichia coli NAR 311
  MIC: 128 µg/mL (≈ 344 µM)
[26]
  MIC: 2 µg/mL (≈ 5.37 µM)
[27]
  MIC: 64 µg/mL (≈ 172 µM)
[28]
  MIC: 4 µg/mL (≈ 10.7 µM)
[29]
  MIC: 4 µg/mL (≈ 10.7 µM)
